Measured values taken from patent US9084770B2, “Modulation of insulin like growth factor I receptor expression in cancer” (Antisense Therapeutics, Ltd., priority 2008, dated 2015).
Where two headings read alike, the source gives them in different places.

Key:
PC3 cells [1] = assay: Growth of PC3 cells with chemotherapeutic agents; assay type: cell-based, human; conditions: read-out: IC50 (cell growth)
From the text: (§1) PC3 cells cultured in vitro were selected for resistance to Paclitaxel (Ptx-R).

Ptx-R PC3 cells = assay: Growth of Paclitaxel resistant Ptx-R PC3 cells with chemotherapeutic agents; assay type: cell-based, human; conditions: read-out: IC50 (cell growth)
From the text: as §1

human IGF-IR mRNA = assay: Antisense inhibition of human IGF-IR mRNA levels by quantitative RT-PCR (Table 1); assay type: cell-based; parameters: %INHIB (human IGF-IR mRNA levels): concentration or dose not given beside the values; conditions: quantitative RT-PCR; averages from 3 experiments
PC3 cells [2] = assay: PC3 viable cells and apoptosis after transfection plus Paclitaxel; conditions: Homo sapiens, PC-3, 72 h, read-out: reduction of viable cell count
Description: PC3 cells cultured in vitro were transfected at concentrations of IGF-IR antisense oligonucleotide (ATL1101) or control oligodeoxynucleotide (ISIS 306064) ranging from 12.5 nM to 50 nM or oligofectamine control once per day on two sequential days. After the 2nd transfection, the PC3 cells were treated with concentrations of between 0.1 to 50 nM Paclitaxel. The number of viable cells remaining were determined 72 hours after Paclitaxel treatment.

[3] = Homo sapiens, PC-3, standard culture conditions

| IC50 (PC3 cells [1]; [3]) [µM] | IC50 (Ptx-R PC3 cells; [3]) [µM] | Compound | other results |
| --- | --- | --- | --- |
| 0.000827 | 0.01 | CC(=O)O[C@@]12CO[C@@H]1C[C@H](O)[C@@]1(C)C(=O)[C@H](O)C3=C(C)[C@@H](OC(=O)[C@H](O)[C@@H](NC(=O)OC(C)(C)C)c4ccccc4)C[C@@](O)([C@@H](OC(=O)c4ccccc4)[C@H]21)C3(C)C [Docataxel] |  |
|  |  | N.N.[Cl][Pt][Cl] [Cisplatin] | IC50 (PC3 cells [1]; standard culture conditions): 0.01 µM; IC50 (Ptx-R PC3 cells; standard culture conditions): 0.0247 µM |
|  |  | 323754 (antisense CATAGAAGAACACAGGATCT; listed as DNA, chemistry not fully specified) [compound 323754] | %INHIB (human IGF-IR mRNA levels) (human IGF-IR mRNA): 33% |
| 0.00256 | 0.0503 | CC(=O)O[C@H]1C(=O)[C@@]2(C)[C@H]([C@H](OC(=O)c3ccccc3)[C@]3(O)C[C@H](OC(=O)[C@H](O)[C@@H](NC(=O)c4ccccc4)c4ccccc4)C(C)=C1C3(C)C)[C@]1(OC(C)=O)CO[C@@H]1C[C@@H]2O [Paclitaxel] | cytotoxicity at 0.0001 µM (PC3 cells [2]): ~5% |

| Compound | IC50 (PC3 cells [1]; [3]) [µM] | IC50 (Ptx-R PC3 cells; [3]) [µM] | other results |
| --- | --- | --- | --- |
| O=C1c2c(O)ccc(O)c2C(=O)c2c(NCCNCCO)ccc(NCCNCCO)c21 [Mitoxantrone] | 0.00881 | 0.376 |  |
